Laboratory results published in PMC10861955 (Heliyon, 2024).

Biological target: T1, Helicobacter pylori inosine 5′-monophosphate dehydrogenase (HpIMPDH) (Helicobacter pylori, UniProt P56088)
T1 sequence (P56088 1-481): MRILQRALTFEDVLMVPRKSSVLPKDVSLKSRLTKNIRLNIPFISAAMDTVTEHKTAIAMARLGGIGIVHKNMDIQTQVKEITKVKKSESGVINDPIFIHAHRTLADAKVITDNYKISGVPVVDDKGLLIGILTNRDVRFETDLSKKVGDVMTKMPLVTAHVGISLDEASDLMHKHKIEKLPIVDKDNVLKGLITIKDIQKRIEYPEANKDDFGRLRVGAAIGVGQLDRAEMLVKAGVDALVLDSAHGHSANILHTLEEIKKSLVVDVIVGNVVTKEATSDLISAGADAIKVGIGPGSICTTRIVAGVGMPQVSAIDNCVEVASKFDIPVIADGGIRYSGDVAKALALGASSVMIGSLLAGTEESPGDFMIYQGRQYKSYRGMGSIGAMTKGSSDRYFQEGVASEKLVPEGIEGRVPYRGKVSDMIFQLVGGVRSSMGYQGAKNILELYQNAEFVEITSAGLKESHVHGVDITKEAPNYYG
Experiment: fluorescence assay of NADH formation, […] HpIMPDH
Format: biochemical

| SMILES | IC50 |
| --- | --- |
| COc1c2occc2cc2ccc(=O)oc12 [Compound 2, xanthotoxin] | 2800 nM |
| COc1cc(OC)c2ccc(=O)oc2c1 [Compound 3, 5,7-di-methoxy-2H-chromen-2-one] | 2400 nM |
